Results published in US20220162610A1, “NOVEL RNA TRANSCRIPT” (PTC Therapeutics, Inc., priority 2020, published 2022).

Legend:
SH-SY5Y cells = assay: RNA-seq analysis of transcriptome and splicing changes in SH-SY5Y cells; type: cell-based, human; settings: for splicing events altered: 24 h
Method: SHY5Y cells were seeded in 6-well plates at 6×10^5 cells/well in 2 mL 10% FBS, DMEM and incubated for 4 hours. Cells were then treated with two biological replicates of HTT-C1 at 24 nM or 100 nM (in 0.1% DMSO), or four biological replicates of vehicle control (DMSO) for 24 hours (37° C., 5% CO2, 100% relative humidity). HEK293 cells transfected with U1 snRNA minigene constructs treated with either duplicates of 1 μM HTT-C1 or 0.5% DMSO control and incubated for 48 hours (37° C., 5% CO2, 100% relative humidity).
For library preparation and sequencing, mRNA was enriched from about 3 μg of total RNA using oligo(dT) beads (ThermoFisher Scientific). The mRNA was fragmented randomly using fragmentation buffer followed by cDNA synthesis using the mRNA template and random hexamers primer. Second-strand synthesis buffer (Illumina), deoxynucleotides, ribonuclease H and DNA polymerase I were added to initiate second-strand synthesis. After a series of terminal repair, A-ligation and sequencing adaptor ligation, the double-stranded cDNA library was size selected and enriched by PCR. RNA libraries were sequenced in a HiSeq sequencer (Illumina).
RNA sequencing reads were mapped to human genome (hg19) using Spliced Transcripts Alignment to a Reference (STAR) software (version 2.5) (Dobin et L., (2013) Bioinformatics 1; 29(1):15-21). Uniquely mapped reads (with MAPQ>10) having <5 nt/100 nt mismatches were used for analysis.
For gene expression analysis, the number of reads in a coding sequence (CDS) region of protein-coding genes and exonic regions of non-coding genes were counted and analyzed using DESeq2 (Love et al., (2014) Genome Biology, 15:550). For splicing analysis, reads were counted for different exons or exonic regions. For each exon, a Percent-Spliced-In (PSI) value was calculated using the percent of average read number supporting the inclusion of the exon (include both the upstream and downstream junctions) among all reads supporting either the inclusion or the exclusion of an exon. A minimal of 20 for the denominator of PSI calculation was required. Otherwise a “NA” value would be generated. PSI values for biological replicates were averaged and the PSI difference between two treatment groups was calculated. For statistical test, a 2×2 read counts table was made for each exon with rows for reads supporting inclusion or exclusion and columns for the two comparing sample groups (biological replicates were combined). Fisher's Exact Test was used for statistical test. PSI change of >20% (or <−20%) and P-value <0.001 was used to select exons being regulated by the treatment.

[1] = test system: human HTT intron 49 minigene; assay: Human HTT intron 49 minigene splicing in transfected HEK293 cells (endpoint PCR); type: cell-based; settings: 10 nM, 100 nM, 1 μM, 24 h
Method: To identify potential sequence elements, human, mouse, and hybrid mouse/human HTT intron 49 minigene constructs were generated (FIG. 7A,7Bi-xii, 7Di-viii and 7Ei-vi). HEK293 cells transfected with the minigene constructs were treated with varying concentrations of test compounds in a final concentration 0.05% DMSO and incubated for 24 hours. Total RNA was isolated from the cells using the RNeasy plus mini kit (Qiagen) and RNA concentration and quality were assessed using a NanoDrop spectrophotometer (Thermo Fisher Scientific). cDNA was synthesized using an iScript™ cDNA synthesis kit (Bio-rad Laboratories) according to the manufacturer's instructions. Endpoint PCRs were set up using Platinum™ PCR SuperMix High Fidelity (Invitrogen) and the resulting PCR products separated on 2% eGels (Invitrogen). Primers were directed against common sequences in the minigene constructs: […]

HTT pre-mRNA intron 49 = assay: Ampliseq Junction Expression Index (JEI) of HTT introns in GM04856 cells; type: cell-based, human; settings: 125 nM, 24 h, vs DMSO, P<0.05
Method: Targeted next-generation sequencing Novel splicing events originating from HTT pre-mRNA upon compound treatment were further analyzed using AmpliSeq technology. The GM04856 cells were plated in 6-well plates at 500,000 cells/well in 2000 μl DMEM/10% FBS and incubated for 6 hours in a cell culture incubator (37° C., 5% CO2, 100% relative humidity). Cells were then treated in triplicate with HTT-C1 at 125 nM (in 0.5% DMSO) for 24 hours. Following treatment, RNA was purified using an RNeasy Mini Kit (Qiagen) according to the manufacturer's protocol. Novel splice variants induced by the HTT-C1 compound were detected using Ion AmpliSeq technology (Life Technologies), a PCR-based target enrichment and next-generation sequencing platform. PCR enrichment of HTT exon targets was accomplished by applying a custom HTT AmpliSeq panel. The panel consisted of two separate PCR primer pools, each producing 33 amplicons. […]
For data analysis, Ampliseq reads (Fastq format) were mapped to human genome (hg19) using tophat2 which allowed identification of both known and novel splice junctions. For each one of the 66 introns of HTT gene, a Junction Expression Index (JEI) was calculated using the percent of reads supporting the splicing of the exact annotated intron among all reads supporting the splicing isoforms using either the 5′ splice or/and 3′ splice site of that intron (FIG. 3B). […]

Row | SMILES | UP cassette exons with no annotation for at least one splice site (SH-SY5Y cells; 24 nM) | expression of HTT (RNA-seq) (SH-SY5Y cells; 24 nM (~2x the IC50)) | splicing events altered (SH-SY5Y cells; 24 nM) | UP cassette exons with no annotation for at least one splice site (SH-SY5Y cells; 100 nM) | splicing events altered (SH-SY5Y cells; 100 nM) | pseudoexons activated (SH-SY5Y cells; FIG. 6D comparison with U1-GA variant) | pseudoexons induced (SH-SY5Y cells; at either concentration (24 nM or 100 nM)) | compound-induced splicing of minigene [1] | reduction of junction expression index (JEI) in intron 49 (HTT pre-mRNA intron 49)
1 | CC1(C)CC(Oc2ccc(-c3ccc(-c4cn[nH]c4)cc3O)nn2)CC(C)(C)N1 [HTT-C2] | 22% | selectively and potently downregulated expression of HTT | 165 | 44% | 215 | 27 | 31 | responded in a dose dependent manner | 
2 | CC1(C)CC(Oc2ccc(-c3ccc(-c4ccnc(O)c4)cc3O)nn2)CC(C)(C)N1 [HTT-C1] |  |  |  |  |  |  |  |  | > 25%
